Data on 38 compounds can be found in PubChem BioAssay (NCI).

Some test systems named below: DLD-1 colon; HOP-18 NSCLC; LXFL 529 NSCLC; SNB-78 CNS; RXF-631 renal; KM20L2 colon; MDA-N; SN12K1 renal; P388 leukemia; P388/ADR leukemia.
What all share (assay): NCI tumour cell line growth inhibition, 48 h

“And” between values parts separate entries of the source, which are not always exact repeats. Equal values may be shown once.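 Protocol summary: plate cells (96-well), add compound at 5 concentrations, incubate 48 h, interpolate endpoints linearly. GI50 is the concentration that inhibits growth by half. TGI: total growth inhibition.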

Take `CC1=NN(c2ccccc2)C(=O)C1N=Nc1ccc(Br)cc1C` (centres undefined): the TGI in the test with DLD-1 colon, in the test with HOP-18 NSCLC, with LXFL 529 NSCLC, with SNB-78 CNS, in the test with RXF-631 renal and in the test with KM20L2 colon was > 100 µM in each case.
As for `OCC1OC(N2CCN(C3OC(CO)C(O)C(O)C3O)CC2)C(O)C(O)C1O` (centres undefined), the TGI with MDA-N is > 100 µM.
`O=S(=O)(O)c1ccc([Se][Se]c2ccc(S(=O)(=O)O)cc2)cc1`: the TGI with DLD-1 colon, in the test with HOP-18 NSCLC, with LXFL 529 NSCLC, with SNB-78 CNS and in the test on KM20L2 colon was > 100 µM each time.
In the case of `O=Cc1cc2sc(C=O)cc2s1`, the TGI in the test with DLD-1 colon, in the test with LXFL 529 NSCLC, with SNB-78 CNS, in the test on RXF-631 renal and in the test on KM20L2 colon was > 100 µM each time.
Turning to `CCN(CC(O)COc1ccc2c(c1)[n+]([O-])nc(N)[n+]2[O-])C(C)=O` (centres undefined), in the test with MDA-N, the TGI is > 100 µM.
As for `COc1ccc(-c2oc(C=Nc3ccccc3)c([N+](=O)[O-])c2-c2ccc(OC)c(OC)c2)cc1OC`, the TGI with DLD-1 colon, in the test with LXFL 529 NSCLC, with SNB-78 CNS and in the test with KM20L2 colon was > 100 µM throughout.
For `OC(CBr)C(O)C(O)C(O)CBr` (centres undefined), the TGI is > 100 µM with MDA-N; > 100 µM with SN12K1 renal; > 100 µM in the test with DLD-1 colon; > 32.4 µM with P388 leukemia; > 100 µM in the test on HOP-18 NSCLC; > 100 µM in the test with SNB-78 CNS. Besides, the values for the TGI in the test with KM20L2 colon and with P388/ADR leukemia were > 100 µM and > 51.9 µM, respectively.
As to `O=C(C#Cc1ccccc1)Nc1ccccc1CC(c1c[nH]c2ccccc12)c1c[nH]c2ccccc12`, the TGI with DLD-1 colon was > 100 µM; in the test on LXFL 529 NSCLC, 28.4 µM; in the test on SNB-78 CNS, 97.6 µM; with RXF-631 renal, 74.6 µM.
For `CN(N=O)N1C(=O)SCC(c2ccccc2)(c2ccccc2)C1=O`, the TGI in the test on MDA-N was > 100 µM.
On to `C/C(COc1ccccc1)=N\NC(N)=S`, for which the TGI in the test on DLD-1 colon, with LXFL 529 NSCLC, in the test on SNB-78 CNS and in the test with KM20L2 colon was > 100 µM in each case.
For `S=C1NC(c2ccccc2)NC(c2ccccc2)S1` (centres undefined), the TGI with MDA-N is > 100 µM.
On to `Nc1[nH]c(=S)[nH]c(=O)c1N=Nc1c(Br)cc(S(N)(=O)=O)cc1Br`, for which, in the test with MDA-N, the TGI was > 100 µM.
In the case of `Cc1cc(NCCCCCCCCNc2cc(C)nc3cc(N(C)C)ccc23)c2ccc(N(C)C)cc2n1`, the values for the TGI in the test on LXFL 529 NSCLC, in the test on SNB-78 CNS and with KM20L2 colon were 16 µM, > 100 µM and 27.3 µM, respectively.
Turning to `COc1ccc(C2[C@@H](Cl)C(=O)N2c2ccc(OC)cc2)cc1` (some centres undefined), the TGI with DLD-1 colon, in the test with LXFL 529 NSCLC and with SNB-78 CNS was > 100 µM each time.
Turning to `CCOC1=C2N=C(C(CC)c3ccc(F)cc3)N=C2C(=O)c2ccccc21` (centres undefined), the TGI in the test on DLD-1 colon was > 30.4 µM; with LXFL 529 NSCLC, > 90.3 µM; with SNB-78 CNS, 89.8 µM; in the test on KM20L2 colon, 50.7 µM.
Turning to `CC1O[C@@H]2CCCCC(=O)[C@]2(C)[C@H]1C` (some centres undefined), the TGI with DLD-1 colon, in the test on HOP-18 NSCLC, in the test on LXFL 529 NSCLC, in the test with SNB-78 CNS, in the test on RXF-631 renal and with KM20L2 colon was > 100 µM in each case.
Consider `CCC(/C(=N/NC(=O)C[N+](C)(C)C)c1ccccc1)C1OC(=O)c2ccccc21` (centres undefined), for which the TGI in the test with LXFL 529 NSCLC, in the test with SNB-78 CNS, in the test on RXF-631 renal and in the test on KM20L2 colon was > 100 µM throughout.
With `CC(C)(C)c1cc([Si](C)(C)C)c(C#N)c([Si](C)(C)C)c1`, the TGI in the test on DLD-1 colon, with HOP-18 NSCLC, in the test with LXFL 529 NSCLC, in the test on SNB-78 CNS and in the test on KM20L2 colon was > 100 µM each time.
As for `N#Cc1cc([N+](=O)[O-])ccc1NC(=O)C(=O)Nn1c(=S)[nH]c2ccccc2c1=O`, the TGI in the test on DLD-1 colon, with HOP-18 NSCLC, with LXFL 529 NSCLC, in the test on SNB-78 CNS, in the test with RXF-631 renal and in the test with KM20L2 colon was > 100 µM in each case.
As to `O=C1C2=C(c3ccccc31)C(c1ccc([N+](=O)[O-])cc1)NC(=S)N2` (centres undefined), the TGI with DLD-1 colon, with LXFL 529 NSCLC, in the test on RXF-631 renal and with KM20L2 colon was > 100 µM throughout.
`Clc1cc2ns[s+]c2cc1Cl`: the TGI is > 56.5 µM in the test with DLD-1 colon; > 69.3 µM in the test on HOP-18 NSCLC; > 100 µM in the test on LXFL 529 NSCLC; > 100 µM in the test on SNB-78 CNS; > 100 µM with RXF-631 renal; > 100 µM with KM20L2 colon.
Take `O=S1(=O)CC#CC[C@@H](CO)[C@@H](CO)CC#CC1`: the TGI in the test on DLD-1 colon, with LXFL 529 NSCLC, in the test on SNB-78 CNS and in the test on KM20L2 colon was > 100 µM throughout.
Regarding `Oc1ccc(Cl)cc1N=Nc1c(O)ccc2ccccc12`, the TGI in the test on MDA-N was > 100 µM.
For the compound `CCCCCCCCCCCCCC(=O)OCC1OC(=O)C(O)C1O` (centres undefined), the TGI with DLD-1 colon, in the test on HOP-18 NSCLC, in the test with LXFL 529 NSCLC and in the test on KM20L2 colon was > 100 µM throughout.
For the compound `CN(C)c1ccc(/C=C(\C#N)C(=O)c2ccccc2)cc1Br`, the TGI with DLD-1 colon, in the test with HOP-18 NSCLC, in the test on LXFL 529 NSCLC, in the test with SNB-78 CNS, in the test with RXF-631 renal and in the test on KM20L2 colon was > 100 µM each time.
Consider `O=c1[nH]c(C2CCCCC2)nc2ccc(Cl)cc12`, for which the TGI with LXFL 529 NSCLC, in the test on SNB-78 CNS and in the test with KM20L2 colon was > 100 µM throughout.
For `CC#CC#C/C=C1/C=CC2(CCCCO2)O1` (centres undefined), the TGI in the test with MDA-N was > 100 µM.
Regarding `COc1ccc(/C=C2\CCC(C)(CN(C)C)C2=O)cc1Br` (centres undefined), the TGI in the test with MDA-N was 41.2 µM; in the test on DLD-1 colon, 37.4 µM; with HOP-18 NSCLC, > 100 µM; in the test on LXFL 529 NSCLC it was 31.8 µM; in the test on SNB-78 CNS, 86 µM; in the test on KM20L2 colon, 17.7 µM.
On to `Cc1ccc(C2=C(c3ccccc3)C(O)(c3ccccc3)C(c3ccccc3)=C2c2ccc(C)cc2)cc1`, for which the TGI with DLD-1 colon, with HOP-18 NSCLC, with LXFL 529 NSCLC, with SNB-78 CNS, in the test with RXF-631 renal and in the test on KM20L2 colon was > 100 µM throughout.
Regarding `CC(C)c1cccc(C(C)C)c1NC(=O)/C(Cc1nc2ccc(Cl)cc2[nH]c1=O)=N\NC(=O)C[N+](C)(C)C`, the TGI in the test with DLD-1 colon, in the test with RXF-631 renal and in the test with KM20L2 colon was > 100 µM each time.
`Cc1nc(-n2nc(-c3ccccc3)cc2-c2ccccc2)sc1C(/C=C\c1ccc([N+](=O)[O-])cc1)=N/NC(=S)NN`: the TGI in the test with MDA-N was 50.7 µM; in the test with DLD-1 colon, 48.6 µM; with LXFL 529 NSCLC, > 100 µM; in the test on SNB-78 CNS, > 100 µM; in the test with KM20L2 colon, > 100 µM.
As to `OCC1OC(NO)C(O)C(O)C1O` (centres undefined), the TGI in the test on DLD-1 colon, in the test on HOP-18 NSCLC, in the test with LXFL 529 NSCLC, in the test with SNB-78 CNS, in the test with RXF-631 renal and with KM20L2 colon was > 100 µM each time.
As for `Cc1ccccc1C1SCc2nc3ccccc3n21` (centres undefined), the TGI with DLD-1 colon, in the test with HOP-18 NSCLC and in the test on SNB-78 CNS was > 100 µM each time.
For the compound `CN1C(=O)CC(CC(=O)C2CCCCC2=O)CC1=O` (centres undefined), the TGI with DLD-1 colon, with HOP-18 NSCLC, in the test on LXFL 529 NSCLC, in the test on SNB-78 CNS and with KM20L2 colon was > 100 µM throughout.
With `NC(=O)C1CCCN1Cc1ccc2c(c1)OCO2` (centres undefined), the TGI with MDA-N was > 100 µM.
For the compound `CCn1c(C)nc([N+](=O)[O-])c1Sc1ncc[nH]1`, the TGI with DLD-1 colon was > 100 µM; in the test on HOP-18 NSCLC, 73.8 µM; in the test on LXFL 529 NSCLC it was > 100 µM; in the test on SNB-78 CNS, > 100 µM; in the test on RXF-631 renal, 88 µM.
As to `O=C1/C(=C/c2ccc(C(=O)O)cc2)CNC/C1=C\c1ccc(C(=O)O)cc1`, the TGI with DLD-1 colon, with HOP-18 NSCLC, in the test on LXFL 529 NSCLC, in the test on SNB-78 CNS, in the test with RXF-631 renal and in the test on KM20L2 colon was > 100 µM each time.
For `C/C=C1/CN2CCC34c5ccccc5N5C(=O)C(C6CC78c9ccccc9N9C(=O)C=CC(C%10CC7N6C/C%10=C/C)C98)=CC(C1CC23)C54` (centres undefined), in the test on MDA-N, the GI50 is 3.51 µM; the TGI is 12.7 µM and 13.3 µM.
